Source: patent US20070092577A1, “Dietary calcium for reducing the production of reactive oxygen species” (University of Tennessee Research Foundation, priority 2005, published 2007)

Experiments:
TNFα [1] = assay: TNFα expression in RAW 264 macrophages; type: cell-based; conditions: added to calcitriol; macrophages cultured alone
Procedure: (§1) RAW 264 macrophages and 3T3-L1 preadipocytes (American Type Culture Collection) were incubated at a density of 8000 cells/cm2 (10 cm2 dish) and grown in Dulbecco's modified Eagle's medium (DMEM) containing 10% FBS and antibiotics (adipocyte medium) at 37° C. in 5% CO2 in air. Confluent 3T3-L1 preadipocytes were induced to differentiate with a standard differentiation medium consisting of DMEM-F10 (1:1, vol/vol) medium supplemented with 1% FBS, 1 μM dexamethasone, IBMX (0.5 mM) and antibiotics (1% Penicillin-Streptomycin). Preadipocytes were maintained in this differentiation medium for 3 days and subsequently cultured in adipocyte medium. Cultures were re-fed every 2-3 days to allow 90% cells to reach fully differentiation for 3T3-L1 adipocytes or grow to a confluence for RAW 264 before conducting chemical treatment.
(§2) Human adipocytes (Zen-Bio, Inc.), 3T3-L1 adipocytes, RAW264 macrophages were obtained and co-cultured by using transwell inserts with 0.4 μm porous membranes (Corning) to separate adipocytes and macrophages. All data are expressed as mean±SEM. Data were evaluated for statistical significance by analysis of one-way or two-way variance (ANOVA; means with different letter differ, p<0.05).
(§3) Adipocyte and muscle 18s, CD14, TNFα, MIP, M-CSF, IL-6 and MCP-1 were quantitatively measured using a Smart Cycler Real Time PCR System (Cepheid, Sunnyvale, Calif.) with a TaqMan 1000 Core Reagent Kit (Applied Biosystems, Branchburg, N.J.). The primers and probe sets were obtained from Applied Biosystems TaqMan® Assays-on-Demand™ Gene Expression primers and probe set collection according to manufacture's instruction. […] Reactions of quantitative RT-PCR for standards and unknown samples were also performed according to the instructions of Smart Cycler System (Cepheid, Sunnyvale, Calif.) and TaqMan Real Time PCR Core Kit (Applied Biosystems, Branchburg, N.J.). The mRNA quantitation for each sample was further normalized using the corresponding 18s quantitation.

IL-6 = IL-6 expression in RAW 264 macrophages; type: cell-based; conditions: added to calcitriol; macrophages cultured alone
Procedure: as §1, §2, §3

3T3-L1 adipocytes = assay: DNA synthesis / cell proliferation (CyQUANT); type: cell-based, murine; conditions: 48 hours
Procedure: (§4) 3T3-L1 preadipocytes were incubated at a density of 8000 cells/cm^2 (10 cm^2 dish) and grown in Dulbecco's modified Eagle's medium (DMEM) containing 10% FBS and antibiotics (adipocyte medium) at 37° C. in 5% CO2 in air. Confluent preadipocytes were induced to differentiate with a standard differentiation medium consisting of DMEM-F 10 (1:1, vol/vol) medium supplemented with 1% FBS, 1 μM dexamethasone, IBMX (0.5 mM) and antibiotics (1% Penicillin-Streptomycin). Preadipocytes were maintained in this differentiation medium for 3 days and subsequently cultured in adipocyte medium. Cultures were re-fed every 2-3 days to allow 90% of cells to reach full differentiation before conducting chemical treatment. Chemicals were freshly diluted in adipocyte medium before treatment. Cells were washed with fresh adipocyte medium, re-fed with medium containing the different treatments, and incubated at 37° C. in 5% CO2 in air before analysis. Cell viability was measured via trypan blue exclusion. Cells were plated in DMEM with different treatment in duplicate in 96-well plates. After 48 h, a CyQUANT Cell Proliferation Kit (Molecular Probes, Eugene, Oreg.) was used following the manufacturer's protocol a microplate fluorometer (Packard Instrument Company, Inc., Downers Grove, Ill.) was used to measure CyQUANT fluorescence. Cell viability was determined by Trypan blue exclusion examination.

[2] = test system: ROS production in cultured 3T3-L1 adipocytes; assay: ROS production in cultured adipocytes (H2-DCFDA); type: cell-based, murine; conditions: 48 hours
Procedure: as §4, with “exclusion. […]” for “exclusion.”, “loaded” for “plated in DMEM”, “H2-DCFDA (2 μmol/L) 30 minute before the end of the incubation period (48 h).” for “different treatment in duplicate in 96-well plates.”, “washing twice with PBS, cells were scraped and disrupted by sonication on ice (20s). Fluorescence (emission 543 nm or 527 nm) and DNA content were then measured as described previously. The intensity of fluorescence” for “48 h, a CyQUANT Cell Proliferation Kit (Molecular Probes, Eugene, Oreg.)”, “expressed as arbitary units per ng DNA.” for “used following the manufacturer's protocol a microplate fluorometer (Packard Instrument Company, Inc., Downers Grove, Ill.) was used to measure CyQUANT fluorescence. Cell viability was determined by Trypan blue exclusion examination.”

[3] = test system: Mitochondrial potential in cultured wild-type 3T3-L1 adipocytes; assay: Mitochondrial membrane potential (JC-1); type: cell-based, murine; conditions: GDP 100 μmol/L with H2O2 100 nmol/L, 48 hours
Procedure: (§5) 3T3-L1 preadipocytes were incubated at a density of 8000 cells/cm^2 (10 cm^2 dish) and grown in Dulbecco's modified Eagle's medium (DMEM) containing 10% FBS and antibiotics (adipocyte medium) at 37° C. in 5% CO2 in air. Confluent preadipocytes were induced to differentiate with a standard differentiation medium consisting of DMEM-F 10 (1:1, vol/vol) medium supplemented with 1% FBS, 1 μM dexamethasone, IBMX (0.5 mM) and antibiotics (1% Penicillin-Streptomycin). Preadipocytes were maintained in this differentiation medium for 3 days and subsequently cultured in adipocyte medium. Cultures were re-fed every 2-3 days to allow 90% of cells to reach full differentiation before conducting chemical treatment. Chemicals were freshly diluted in adipocyte medium before treatment. […] Cell viability was measured via trypan blue exclusion.
Mitochondrial membrane potential was analyzed fluorometrically with a lipophilic cationic dye JC-1 (5,5′,6,6′-tetrachloro-1,1′,3,3′-tetraethylbenzimidazol carbocyanine iodide) using a mitochondrial potential detection kit (Biocarta, San Diego, Calif.). Mitochondrial potential was determined as the ratio of red fluorescence (excitation 550 nm, emission 600 mn) and green fluorescence (excitation 485 nm, emission 535 nm) using a fluorescence microplate reader.

NADPH oxidase = NADPH oxidase expression in 3T3-L1 adipocytes; type: cell-based, murine; conditions: added to glucose 30 mmol/L, 48 hours; nifedipine 10 μmol/L
Procedure: as §5, with “exclusion. Adipocyte 18s, cyclin A, NADPH oxidase, and UCP2 were quantitatively measured using a Smart Cycler Real Time PCR System (Cepheid, Sunnyvale, Calif.) with a TaqMan 1000 Core Reagent Kit (Applied Biosystems, Branchburg, N.J.). […] Reactions of quantitative RT-PCR for standards and unknown samples were also performed according to the instructions of Smart Cycler System (Cepheid, Sunnyvale, Calif.) and TaqMan Real Time PCR Core Kit (Applied Biosystems, Branchburg, N.J.). The mRNA quantitation for each sample was further normalized using the corresponding 18s quantitation.” for “exclusion.”

cyclin A = assay: Cyclin A expression in 3T3-L1 adipocytes; type: cell-based, murine; conditions: added to glucose 30 mmol/L, 48 hours; nifedipine 10 μmol/L
Procedure: as §5, with “exclusion. Adipocyte 18s, cyclin A, NADPH oxidase, and UCP2 were quantitatively measured using a Smart Cycler Real Time PCR System (Cepheid, Sunnyvale, Calif.) with a TaqMan 1000 Core Reagent Kit (Applied Biosystems, Branchburg, N.J.). […] Reactions of quantitative RT-PCR for standards and unknown samples were also performed according to the instructions of Smart Cycler System (Cepheid, Sunnyvale, Calif.) and TaqMan Real Time PCR Core Kit (Applied Biosystems, Branchburg, N.J.). The mRNA quantitation for each sample was further normalized using the corresponding 18s quantitation.” for “exclusion.”

TNFα [4] = assay: TNFα expression in differentiated 3T3-L1 adipocytes; type: cell-based, mouse; conditions: nifedipine 10 μmol/L alone, 48 h
Procedure: 3T3-L1 pre-adipocytes were incubated at a density of 8000 cells/cm^2 (10 cm^2 dish) and grown in Dulbecco's modified Eagle's medium (DMEM) containing 10% FBS and antibiotics (adipocyte medium) at 37° C. in 5% CO2 in air. Confluent pre-adipocytes were induced to differentiate with a standard differentiation medium consisting of DMEM-F10 (1:1, vol/vol) medium supplemented with 1% fetal bovine serum (FBS), 1 μM dexamethasone, isobutylmethylxanthine (IBMX) (0.5 mM) and antibiotics (1% Penicillin-Streptomycin). Pre-adipocytes were maintained in this differentiation medium for 3 days and subsequently cultured in adipocyte medium. Cultures were re-fed every 2-3 days to allow 90% cells to reach fully differentiation before conducting chemical treatment. […] Cell viability was measured via trypan blue exclusion. Adipocyte and muscle 18s, TNFα, IL-6, IL-8, IL-15 and adiponectin were quantitatively measured using a smart cycler real-time PCR system (Cepheid, Sunnyvale, Calif.) with a TaqMan 1000 Core Reagent Kit (Applied Biosystems, Branchburg, N.J.). […] Reactions of quantitative RT-PCR for standards and unknown samples were also performed according to the instructions of Smart Cycler System (Cepheid, Sunnyvale, Calif.) and TaqMan Real Time PCR Core Kit (Applied Biosystems, Branchburg, N.J.). The mRNA quantitation for each sample was further normalized using the corresponding 18s quantitation.

IL-15 = IL-15 expression in differentiated Zen-bio human adipocytes; type: cell-based; conditions: 10 nmol/L 1α, 25-(OH)2-D3 or 10 μmol/L nifedipine, 48 h; p=0.473
Procedure: (§6) Human pre-adipocytes used in this study were supplied by Zen-Bio (Research Triangle, N.C.). […] The cells are isolated from the stromal vascular fraction of human subcutaneous adipose tissue and differentiated in vitro as follows: […] Preadipocytes were maintained in this differentiation medium for 3 days and subsequently cultured in adipocyte medium in which BRL49653 and MIX were omitted. Cultures were re-fed every 2-3 days till fully differentiated. Cells were incubated in serum free medium overnight before chemical treatment. Chemicals were freshly diluted in adipocyte medium before treatment. […] Cell viability was measured via trypan blue exclusion. Adipocyte and muscle 18s, TNFα, IL-6, IL-8, IL-15 and adiponectin were quantitatively measured using a smart cycler real-time PCR system (Cepheid, Sunnyvale, Calif.) with a TaqMan 1000 Core Reagent Kit (Applied Biosystems, Branchburg, N.J.). […] Reactions of quantitative RT-PCR for standards and unknown samples were also performed according to the instructions of Smart Cycler System (Cepheid, Sunnyvale, Calif.) and TaqMan Real Time PCR Core Kit (Applied Biosystems, Branchburg, N.J.). The mRNA quantitation for each sample was further normalized using the corresponding 18s quantitation.

adiponectin = assay: Adiponectin expression in differentiated Zen-bio human adipocytes; type: cell-based; conditions: 10 nmol/L 1α, 25-(OH)2-D3 or 10 μmol/L nifedipine, 48 h; p=0.377
Procedure: as §6

[5] = added to glucose 30 mmol/L, nifedipine 10 μmol/L

O=[N+]([O-])c1ccc(O)c([N+](=O)[O-])c1 [DNP]
effect on calcitriol stimulated TNFα expression (TNFα [1]): blocked
effect on calcitriol stimulated IL-6 expression (IL-6): blocked

Nc1nc2c(ncn2[C@@H]2O[C@H](COP(=O)(O)OP(=O)(O)O)[C@@H](O)[C@H]2O)c(=O)[nH]1 [GDP]
augmentation of the stimulation of cell proliferation by H2O2 (3T3-L1 adipocytes; GDP 100 μmol/L with H2O2 100 nmol/L, p<0.005): 183%
effect on glucose induced DNA synthesis (3T3-L1 adipocytes; [5]): augmented
increase of ROS production compared to H2O2 treatment alone ([2]; GDP 100 μmol/L with H2O2 100 nmol/L, p<0.01): 24%
effect on high glucose induced ROS production [2, 5]: further stimulated ROS production compared to glucose alone
augmentation of the H2O2 effect on mitochondrial potential [3]: 10%
effect on NADPH oxidase expression (NADPH oxidase): suppressed
effect on glucose stimulated cyclin A expression (cyclin A): augmented

COC(=O)C1=C(C)NC(C)=C(C(=O)OC)C1c1ccccc1[N+](=O)[O-] [nifedipine]
inhibition of H2O2 induced ROS production ([2]; nifedipine 10 μmol/L with H2O2 100 nmol/L, p<0.003): 25%
effect on TNFα expression, alone (TNFα [4]): no effect
effect on IL-15 expression (IL-15): no effect
effect on adiponectin expression (adiponectin): no effect
